Data from ChEMBL document CHEMBL1153013, “Bio-active compounds from Euphorbia cornigera Boiss” (2009).
In brackets after ≈: the same amount, converted by molar mass.

system: Biomphalaria glabrata; assay: Molluscicidal activity against Biomphalaria glabrata after 24 hrs; assay type: functional

Row | Structure (SMILES) | LC50 [µg/mL]
1 | C/C=C(\C)C(=O)O[C@@H]1C(COC(=O)c2ccccc2NC(=O)c2ccccc2N)=C[C@@H]2C(=O)[C@]3(C=C(C)[C@H](OC(C)=O)[C@@]13O)[C@H](C)C[C@@H]1[C@H]2C1(C)C | 0.0155 (≈ 0.0218 µM)
2 | CC(=O)OCC1=C[C@@H]2C(=O)[C@]3(C=C(C)[C@H](OC(=O)c4ccccc4NC(=O)c4ccccc4N)[C@@]3(O)[C@@H]1O)[C@H](C)C[C@@H]1[C@H]2C1(C)C | 0.0143 (≈ 0.0227 µM)
3 | C/C=C(\C)C(=O)OCC1=C[C@@H]2C(=O)[C@]3(C=C(C)[C@H](OC(C)=O)[C@@]3(O)[C@@H]1OC(=O)c1ccccc1NC(=O)c1ccccc1N)[C@H](C)C[C@@H]1[C@H]2C1(C)C | 0.0145 (≈ 0.0204 µM)
4 | C/C=C(\C)C(=O)O[C@@H]1C(COC(C)=O)=C[C@@H]2C(=O)[C@]3(C=C(C)[C@H](OC(=O)c4ccccc4NC(=O)c4ccccc4N)[C@@]13O)[C@H](C)C[C@@H]1[C@H]2C1(C)C | 0.0135 (≈ 0.019 µM)
5 | C/C=C(\C)C(=O)O[C@H]1C(C)=C[C@]23C(=O)[C@@H](C=C(COC(C)=O)[C@@H](OC(=O)c4ccccc4NC(=O)c4ccccc4N)[C@]12O)[C@H]1[C@@H](C[C@H]3C)C1(C)C | 0.0754 (≈ 0.106 µM)
6 | CC(=O)OCC1=C[C@@H]2C(=O)[C@]3(C=C(C)[C@H](OC(=O)c4ccccc4NC(=O)c4ccccc4N)[C@@]3(O)[C@@H]1OC(C)=O)[C@H](C)C[C@@H]1[C@H]2C1(C)C | 0.0114 (≈ 0.017 µM)
7 | CC(=O)O[C@H]1C(C)=C[C@]23C(=O)[C@@H](C=C(COC(=O)c4ccccc4NC(=O)c4ccccc4N)[C@@H](O)[C@]12O)[C@H]1[C@@H](C[C@H]3C)C1(C)C | 0.0192 (≈ 0.0305 µM)
8 | CC(=O)OCC1=C[C@@H]2C(=O)[C@]3(C=C(C)[C@H](OC(C)=O)[C@@]3(O)[C@@H]1OC(=O)c1ccccc1NC(=O)c1ccccc1N)[C@H](C)C[C@@H]1[C@H]2C1(C)C | 0.0183 (≈ 0.0273 µM)
9 | C/C=C(\C)C(=O)OCC1=C[C@@H]2C(=O)[C@]3(C=C(C)[C@H](OC(=O)c4ccccc4NC(=O)c4ccccc4N)[C@@]3(O)[C@@H]1OC(C)=O)[C@H](C)C[C@@H]1[C@H]2C1(C)C | 0.0125 (≈ 0.0176 µM)
10 | C/C=C(\C)C(=O)O[C@H]1C(C)=C[C@]23C(=O)[C@@H](C=C(COC(=O)c4ccccc4NC(=O)c4ccccc4N)[C@@H](OC(C)=O)[C@]12O)[C@H]1[C@@H](C[C@H]3C)C1(C)C | 0.0615 (≈ 0.0865 µM)
11 | O=C(Nc1ccc([N+](=O)[O-])cc1Cl)c1cc(Cl)ccc1O [NICLOSAMIDE] | 0.025 (≈ 0.0764 µM)
